Assay results as given in patent US20200000843A1, “COMPOSITION FOR IMPROVEMENT OR PREVENTION OF PARKINSONIAN SYNDROME” (MiZ Company Limited, priority 2018, published 2020).
Where two headings read alike, the source gives them in different places.

Key:
[1] = system: Parkinson's disease patient
Description: A Parkinson's disease patient (medical history: about 8 years) inhaled a mixed gas of hydrogen and air using a gaseous hydrogen inhalation apparatus (MHG-2000α (registered trademark); MiZ Company Limited) for about 90 minutes per day over about 2 months. Here, the mixed gas was inhaled every 2 or 3 days over first about 3 weeks and every day over subsequent about 5 weeks. The hydrogen concentration in MHG-2000α is about 6.0 to 7.0% by volume (hydrogen generation rate: about 140 ml/min).
A Parkinson's disease patient one (medical history: about 6 years) inhaled a mixed gas of hydrogen and air using a gaseous hydrogen inhalation apparatus (MHG-2000α (registered trademark); MiZ Company Limited) for about 90 minutes or about 120 minutes per day. Here, the mixed gas was inhaled every day over about 4.5 months. The hydrogen concentration in MHG-2000α is about 6.0 to 7.0% by volume (hydrogen generation rate: about 140 ml/min).

[2] = system: patient with multiple system atrophy; experiment: Hydrogen water ingestion / hydrogen gas inhalation by a patient with multiple system atrophy (Case 3); format: in vivo, human; conditions: about 6.0 to 7.0% hydrogen, about 1.5 to about 2 hours every day, early stage after the start of the inhalation
Description: The hydrogen concentration in MHG-2000α is about 6.0 to 7.0% (hydrogen generation rate: about 140 ml/min).

[3] = system: Parkinson's disease patient; remark: listed apart in the source
[4] = system: Parkinson's disease model rat; conditions: cited from earlier work
[5] = compared with H2; cited from earlier work
[6] = Case 1, first inhalation for 90 minutes, about 6.0 to 7.0% by volume hydrogen
[7] = Case 2, about 4 months after the start of inhalation
[8] = Case 2, immediately after inhalation for about 90 or about 120 minutes per day, substantially every day over about 1 month

## [HH] [hydrogen gas, molecular hydrogen]
[1]; Case 1, 90 minutes after the start of first inhalation
  posture forward-bending in a dogleg shape: improved to a middle between the upright state and the dogleg shape state
[1]; Case 1, about 6.0 to 7.0% by volume hydrogen, about 90 minutes per day over about 2 months
  complexion, voice, movement, gait and the like: improved to be almost comparable to a healthy person
[1]; [6]
  time after start of inhalation at which shaking of hands was stopped: about 30 minutes
  time after start of inhalation at which shaking under the jaw was stopped: about 40 minutes
[1]; Case 2 (person one), first inhalation, about 6.0 to 7.0% by volume hydrogen
  time after start of inhalation at which shaking of the hands was stopped: about 45 minutes
[1]; [7]
  bending of the spine: reduced as compared to the symptom in the early stage
  shaking of the hands and the mouth: too small to be recognized unless a careful observation is made
  time taken for fastening buttons of clothing and for change of clothes: markedly shortened
[1]; Case 2, about 90 minutes after the start of first inhalation
  bending of the waist compared to before the inhalation: improved
[1]; Case 2, first inhalation, about 6.0 to 7.0% by volume hydrogen
  time after start of inhalation at which shaking of the mouth was stopped: about 55 minutes
[1]; [8]
  forward-bending posture: improved to a reasonably upright state
  shaking of the hands and legs: did not shake, or shook slightly
  shaking of the mouth: shook slightly
[2]
  gait: became able to walk steadily and without support
[3]; Case 4, about 4% by volume hydrogen, about 20 minutes every day over 3 months, FIG. 1A
  action tremors, VAS scale values of 0 to 5.0: evidently improved
[3]; Case 4, about 4% by volume hydrogen, about 20 minutes every day over 3 months, FIG. 1B
  slowness of movement, VAS scale values of 0 to 5.0: evidently improved
[3]; Case 4, about 4% by volume hydrogen, about 20 minutes every day over 3 months, FIG. 1C
  tiny step gait, VAS scale values of 0 to 5.0: evidently improved
[3]; Case 5, about 6.0 to 7.0% by volume hydrogen, about 1 to 3 hours every day over 3 months, FIG. 2A
  slowness of movement, VAS scale values of 0 to 5.0: evidently improved
[3]; Case 5, about 6.0 to 7.0% by volume hydrogen, about 1 to 3 hours every day over 3 months, FIG. 2B
  forward-bending posture, VAS scale values of 0 to 5.0: evidently improved
[3]; Case 5, about 6.0 to 7.0% by volume hydrogen, about 1 to 3 hours every day over 3 months, FIG. 2C
  rigidity, VAS scale values of 0 to 5.0: evidently improved
[3]; Case 5, about 6.0 to 7.0% by volume hydrogen, about 1 to 3 hours every day over 3 months, FIG. 2E
  bowel movement (constipation), VAS scale values of 0 to 5.0: evidently improved
[3]; Case 5, about 6.0 to 7.0% by volume hydrogen, about 1 to 3 hours every day over 3 months, FIG. 2F
  sleep (insomnia), VAS scale values of 0 to 5.0: evidently improved
[3]; Case 5, over three months after the start of inhalation, FIG. 2D legend
  tiny step gait, VAS scale values of 0 to 5.0: improvements
[4]; hydrogen gas (2%) continuously breathed
  advancement of symptoms: the symptoms were advanced
[4]; hydrogen gas (2%) intermittently breathed
  advancement of symptoms: slightly lessened

## [2H][2H] [D2, deuterium]
[5]
  superoxide scavenging effect: higher than that of H2
